From the supplement of paper PMC10307832

Assays:
Assay in all cases: relative viability (nuclei count vs DMSO), 5 days (fraction); higher = more cells survive
Neratinib + AZD7762 = compound: CCOc1cc2ncc(C#N)c(Nc3ccc(OCc4ccccn4)c(Cl)c3)c2cc1NC(=O)/C=C/CN(C)C [Neratinib] + NC(=O)Nc1cc(-c2cccc(F)c2)sc1C(=O)N[C@H]1CCCNC1 [AZD7762] (partner 0.2 µM)
In short: (§1)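 Lung cancer cell lines in 1536-well plates were dosed by pin tool the day after seeding, either with one drug alone or with a fixed anchor-drug dose plus five library-drug doses (not always all listed) in √10 steps. After 5 days, cells were fixed and their nuclei stained in one step (final 0.05% Triton X-100, 1% formaldehyde, 1 ug/ml Hoechst), then counted on 4× images. Relative viability is the nuclei count in treated wells divided by that in vehicle wells. Values are medians of duplicate plates.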

Neratinib + Decitabine = compound: CCOc1cc2ncc(C#N)c(Nc3ccc(OCc4ccccn4)c(Cl)c3)c2cc1NC(=O)/C=C/CN(C)C [Neratinib] + Nc1ncn([C@H]2C[C@H](O)[C@@H](CO)O2)c(=O)n1 [Decitabine] (partner 2 µM)
In short: as §1

Neratinib + Olaparib = compound: CCOc1cc2ncc(C#N)c(Nc3ccc(OCc4ccccn4)c(Cl)c3)c2cc1NC(=O)/C=C/CN(C)C [Neratinib] + O=C(c1cc(Cc2n[nH]c(=O)c3ccccc23)ccc1F)N1CCN(C(=O)C2CC2)CC1 [Olaparib] (partner 8 µM)
In short: as §1

Neratinib + Lapatinib = compound: CCOc1cc2ncc(C#N)c(Nc3ccc(OCc4ccccn4)c(Cl)c3)c2cc1NC(=O)/C=C/CN(C)C [Neratinib] + CS(=O)(=O)CCNCc1ccc(-c2ccc3ncnc(Nc4ccc(OCc5cccc(F)c5)c(Cl)c4)c3c2)o1 [Lapatinib] (partner 2 µM)
In short: as §1

Cell Line | relative viability (Neratinib + AZD7762; first compound 0.01 µM) | relative viability (Neratinib + AZD7762; first compound 0.03162 µM) | relative viability (Neratinib + AZD7762; first compound 0.1 µM) | relative viability (Neratinib + AZD7762; first compound 0.3162 µM) | relative viability (Neratinib + AZD7762; first compound 1 µM) | relative viability (Neratinib + Decitabine; first compound 0.01 µM) | relative viability (Neratinib + Decitabine; first compound 0.03162 µM) | relative viability (Neratinib + Decitabine; first compound 0.1 µM) | relative viability (Neratinib + Decitabine; first compound 0.3162 µM) | relative viability (Neratinib + Decitabine; first compound 1 µM) | relative viability (Neratinib + Olaparib; first compound 0.01 µM) | relative viability (Neratinib + Olaparib; first compound 0.03162 µM) | relative viability (Neratinib + Olaparib; first compound 0.1 µM) | relative viability (Neratinib + Olaparib; first compound 0.3162 µM) | relative viability (Neratinib + Olaparib; first compound 1 µM) | relative viability (Neratinib + Lapatinib; first compound 0.01 µM) | relative viability (Neratinib + Lapatinib; first compound 0.03162 µM) | relative viability (Neratinib + Lapatinib; first compound 0.1 µM) | relative viability (Neratinib + Lapatinib; first compound 0.3162 µM) | relative viability (Neratinib + Lapatinib; first compound 1 µM)
ChaGo-K-1 | 0.93 | 0.879 | 0.648 | 0.842 | 0.788 | 0.517 | 0.581 | 0.517 | 0.526 | 0.534 | 0.412 | 0.469 | 0.331 | 0.392 | 0.401 |  |  |  |  | 
EKVX | 0.726 | 0.699 | 0.609 | 0.441 | 0.199 | 0.339 | 0.351 | 0.324 | 0.197 | 0.16 | 0.86 |  | 0.624 | 0.341 | 0.203 | 0.186 | 0.212 | 0.179 | 0.195 | 0.189
EMC-BAC-2 | 1.19 | 1.19 | 1 | 1.08 | 0.974 | 1.12 | 1 | 0.942 | 0.988 | 0.929 | 0.521 | 0.481 | 0.501 | 0.528 | 0.45 | 1.03 | 0.965 | 0.826 | 0.856 | 0.864
EPLC-272H | 0.209 | 0.193 | 0.112 | 0.181 | 0.205 | 0.407 | 0.444 | 0.332 | 0.331 | 0.344 | 0.645 | 0.643 | 0.558 | 0.512 | 0.253 | 0.889 | 0.849 | 0.829 | 0.899 | 0.536
H3255 | 1.01 | 0.824 | 0.588 | 0.288 | 0.247 | 0.548 | 0.471 | 0.454 | 0.218 | 0.245 | 0.58 | 0.571 | 0.463 | 0.264 | 0.214 | 0.257 | 0.333 | 0.273 | 0.229 | 0.176
HARA | 0.563 | 0.293 | 0.263 |  | 0.261 | 0.573 | 0.493 | 0.414 |  | 0.476 | 0.811 |  | 0.778 |  | 0.48 | 0.994 | 0.73 | 0.339 | 0.569 | 0.712
HCC-15 | 1.46 | 1.23 | 1.18 | 1.09 | 1.24 | 0.684 | 0.703 | 0.646 | 0.662 | 0.597 | 0.697 | 0.819 | 0.673 | 0.667 | 0.659 | 0.947 | 1.01 | 0.715 | 0.756 | 0.725
